Experimental data reported in US20040142958A1, “Combination therapy for the treatment of pain” (Neurogen Corporation, priority 2002, published 2004).

What was measured:
[1] = test system: rats; experiment: Carrageenan-induced thermal hyperalgesia, VR1 antagonist and morphine in combination; format: in vivo, rat
Method: Briefly, a constant radiant heat source is applied the animals' plantar surface of either hind paw. The time to withdrawal (ie., the amount of time that heat is applied before the animal moves its paw), otherwise described as thermal threshold or latency, determines the animal's hind paw sensitivity to heat.
Rats received oral administration of 0.1 mg/kg VR1 antagonist ([2-(2,6-dimethyl-morpholin-4-ylmethyl)-7-(3-trifluoromethyl-pyridin-2-yl)-pyrido[3,2-d]pyrimidin-4-yl]-(4-trifluoromethyl-phenyl)-amine (cis)) or vehicle alone in a solution of 2% vitamin E (d-alpha tocopheryl polyethylene glycol 1000 succinate) in distilled water. One hour later, 100 μL of 1% carrageenan was injected in the intraplantar aspect of the left paw. 2 hours after carrageenan injection, the rats were treated subcutaneously with saline or 1 mg/kg of morphine sulfate in saline. One hour after subcutaneous treatment, each rat's thermal withdrawal latency (i.e., the amount of time that heat is applied before the animal moves its paw) was determined. This latency was compared with the latency determined for each rat on the day prior to the experiment (baseline day).
The data are presented in FIG. 4, expressed as a decrease in paw withdrawal latency (latency on test day—latency on baseline day).

[2] = test system: rats; experiment: CFA-induced chronic inflammatory pain, mechanical allodynia (von Frey), tolerance to morphine; format: in vivo, rat; details: once per day for four days; for withdrawal threshold from a von Frey filament: Treatment Day 4, 1 hour after treatment, ANOVA and Fisher's PLSD
Source text: A positive allodynic response consists of lifting the affected paw followed immediately by licking or shaking of the paw.

[3] = oral VR1 antagonist 0.3 mg/kg and subcutaneous morphine sulfate 3 mg/kg

Structure (SMILES)	decrease in thermal paw withdrawal latency (carrageenan-induced thermal hyperalgesia) ([1]; VR1 antagonist alone, 0.1 mg/kg oral, with s.c. saline, ANOVA, Fisher's PLSD)	decrease in thermal paw withdrawal latency (carrageenan-induced thermal hyperalgesia) ([1]; coadministration of 1 mg/kg morphine s.c. with VR1 antagonist 0.1 mg/kg oral)	tolerance to repeated morphine dosing [2, 3]	withdrawal threshold from a von Frey filament [2, 3]	decrease in thermal paw withdrawal latency (carrageenan-induced thermal hyperalgesia) ([1]; 1 mg/kg morphine s.c. with oral vehicle, 1 hour after subcutaneous treatment, ANOVA, Fisher's PLSD)	withdrawal threshold from a von Frey filament ([2]; oral vehicle and subcutaneous morphine sulfate 3 mg/kg)
C[C@@H]1CN(Cc2nc(Nc3ccc(C(F)(F)F)cc3)c3ncc(-c4ncccc4C(F)(F)F)cc3n2)C[C@H](C)O1 [VR1 antagonist, [2-(2,6-dimethyl-morpholin-4-ylmethyl)-7-(3-trifluoromethyl-pyridin-2-yl)-pyrido[3,2-d]pyrimidin-4-yl]-(4-trifluoromethyl-phenyl)-amine (cis)]	statistically significant effect	greatest effect	prevents tolerance to repeated morphine dosing	statistically significantly higher withdrawal thresholds than any other treatment group		
CN1CC[C@]23c4c5ccc(O)c4O[C@H]2[C@@H](O)C=C[C@H]3[C@H]1C5 [morphine, reference compound]					ineffective in reversing carrageenan-induced thermal hyperalgesia	not significantly different from oral vehicle and subcutaneous vehicle controls
